Measured values: ChEMBL document CHEMBL3616434, “Identification of Phenoxyalkylbenzimidazoles with Antitubercular Activity” (J Med Chem, 2015)
Values after ≈ are worked out from the molar mass of the structure shown. Active and inactive are the calls of the source. No cut-off for these calls is given here.

Key:
[1] = test system: Mycobacterium tuberculosis; experiment: Antitubercular activity against Mycobacterium tuberculosis H37Rv ATCC 25618 under aerobic condition after 5 days; type: functional; details: H37Rv ATCC 25618, 120 h
[2] = Cytotoxicity against African green monkey Vero cells after 2 days by luminescent assay; type: cell-based; details: chlorocebus sabaeus, read-out: TC50
[3] = Selectivity index, ratio of TC50 for African green monkey Vero cells to MIC for Mycobacterium tuberculosis H37Rv ATCC 25618
[4] = test system: Mycobacterium tuberculosis; experiment: Bactericidal activity against replicating Mycobacterium tuberculosis at 1 to 10 times MIC after 21 days; type: functional, organism-based

Row | Structure (SMILES) | MIC [1] | CC50 at 48 h [2] | Ratio [3] | Activity [4]
1 | CCc1nc2ccc(C)cc2n1CCCOc1ccc(C)cc1 | 0.27 µM (≈ 0.0833 µg/mL) | 15 µM | 56 | –
2 | Cc1ccc2nc(C(C)O)n(CCCCOc3ccccc3)c2c1 (stereo not drawn) | 20 µM (≈ 6.49 µg/mL) | – | – | –
3 | CCc1nc2ccccc2n1CCCCOc1ccnc2ccccc12 | > 20 µM | > 50 µM | – | –
4 | CCc1nc2ccc(Cl)cc2n1CCCCOc1ccccc1 | 7.1 µM (≈ 2.33 µg/mL) | 25 µM | 3.5 | –
5 | Cc1nc2ccccc2n1CCCOc1ccccc1 | > 20 µM | > 50 µM | – | –
6 | CCc1cc2ccccc2n1CCCCOc1ccc(C)c(Cl)c1 | > 20 µM | – | – | –
7 | CCc1nc2ccccc2n1CCCCOc1ccc(Cl)cc1 | 1.5 µM (≈ 0.493 µg/mL) | 14 µM | 9.3 | –
8 | CCc1nc2ccccc2n1CCCCOc1ccc(C#N)cc1 | 16 µM (≈ 5.11 µg/mL) | 27 µM | 1.7 | –
9 | CCc1nc2ccccc2n1CCCCOc1cc(C)c(Cl)c([N+](=O)[O-])c1 | 7.9 µM (≈ 3.06 µg/mL) | 18 µM | 19 | –
10 | CCc1nc2ccccc2n1CC1COc2ccccc2O1 (stereo not drawn) | > 20 µM | – | – | –
11 | CCc1nc2ccccc2n1CCCCOc1ccccc1C | 0.32 µM (≈ 0.0987 µg/mL) | 16 µM | 50 | –
12 | CCc1nc2ccccc2n1CCOc1ccc(Cl)cc1 | > 20 µM | – | – | –
13 | CCc1nc2ccc(C)cc2n1CCCCNc1ccc(C)cc1 | 0.15 µM (≈ 0.0482 µg/mL) | 20 µM | 133 | –
14 | CCc1nc2ccccc2n1CCCCOc1cc(C)c(CN2CCOCC2)cc1C | 1.3 µM (≈ 0.548 µg/mL) | 48 µM | 15 | –
15 | CCc1nc2ccc(C#N)cc2n1CCCCOc1ccccc1 | > 20 µM | > 20 µM | >20 | –
16 | Clc1nc2ccccc2n1CCCCOc1ccccc1 | > 20 µM | – | – | –
17 | CCc1nc2ccccc2n1CCCCOc1ccc(C)cc1 | 0.15 µM (≈ 0.0463 µg/mL) | 14 µM | 93 | –
18 | Cc1ccc2nc(C(C)O)n(CCCCOc3ccc(C)c(Cl)c3)c2c1 (stereo not drawn) | 11 µM (≈ 4.1 µg/mL) | 8.6 µM | 0.8 | –
19 | CCc1nc2ccccc2n1CCCCOc1ccc(N2CCOCC2)cc1 | > 20 µM | 32 µM | – | –
20 | CCc1cc2ccccc2n1CCCCNc1ccc(C)c(Br)c1 | > 20 µM | – | – | –
21 | CCc1nc2cc(C#N)ccc2n1CCCCOc1ccccc1 | > 20 µM | > 20 µM | >20 | –
22 | FC(F)(F)c1nc2ccccc2n1CCCCOc1ccccc1 | > 20 µM | – | – | –

Row | Structure (SMILES) | MIC [1] | CC50 at 48 h [2] | Ratio [3] | Activity [4]
23 | CCc1nc2ccccc2n1CCCCOc1ccncc1 | > 20 µM | > 50 µM | – | –
24 | CCc1nc2ccccc2n1CCCCOc1ccc(Cl)cc1Cl | 1.8 µM (≈ 0.654 µg/mL) | 23 µM | 13 | –
25 | CCc1nc2ccccc2n1CCCCOc1ccc(OC)cc1 | 1.2 µM (≈ 0.389 µg/mL) | 21 µM | 27 | –
26 | CCc1nc2ccccc2n1CCCCOc1cccc(Cl)c1 | 0.88 µM (≈ 0.289 µg/mL) | 22 µM | 25 | –
27 | c1ccc(OCCCCn2ncc3ccccc32)cc1 | > 20 µM | > 50 µM | – | –
28 | CCc1nc2ccccc2n1CCCCOc1ccc(Cl)cc1C | 1.5 µM (≈ 0.514 µg/mL) | 20 µM | 2.3 | –
29 | CCc1nc2ccc(C)cc2n1CCCOc1ccc(C)c(C)c1 | 0.22 µM (≈ 0.0709 µg/mL) | 7.3 µM | 33 | –
30 | CCc1nc2ccccc2n1CCCCOc1ccccc1C(C)C | 20 µM (≈ 6.73 µg/mL) | 19 µM | 0.7 | –
31 | CCc1nc2ccc(C)cc2n1CCCSc1ccc(C)cc1 | 3.3 µM (≈ 1.07 µg/mL) | 12 µM | 3.6 | –
32 | CCc1nc2ccccc2n1CCCCOc1ccccc1Cl | 0.68 µM (≈ 0.224 µg/mL) | 16 µM | 23 | –
33 | Cc1nc2ccccc2n1CCCCOc1ccccc1 | > 20 µM | > 50 µM | – | –
34 | CCc1nc2ccccc2n1CCCCOCc1ccccc1 | 3.6 µM (≈ 1.11 µg/mL) | 32 µM | 8.9 | –
35 | CCc1nc2ccccc2n1CCCCOc1ccc(Cl)c(F)c1 | 1.6 µM (≈ 0.555 µg/mL) | 16 µM | 10 | –
36 | CCc1nc2ccc(C)cc2n1CCCCNc1ccc(C)c(Br)c1 | 0.11 µM (≈ 0.044 µg/mL) | 12 µM | 109 | –
37 | CCc1nc2ccccc2n1CCCCOc1ccc(Cl)cc1F | 1.5 µM (≈ 0.52 µg/mL) | 5.7 µM | 3.8 | –
38 | c1ccc(OCCCCn2c(N3CCOCC3)nc3ccccc32)cc1 | 20 µM (≈ 7.03 µg/mL) | 20 µM | 20 | –
39 | CCc1nc2ccc(OC)cc2n1CCCCOc1ccccc1 | 0.9 µM (≈ 0.292 µg/mL) | 27 µM | 30 | –
40 | CCc1nc2cc(OC)ccc2n1CCCCOc1ccccc1 | > 20 µM | – | – | –
41 | CCc1nc2ccccc2n1CCCCOc1cccnc1 | > 20 µM | > 50 µM | – | –
42 | CCc1nc2ccccc2n1CCCCOc1cccc(C)c1 | 0.42 µM (≈ 0.13 µg/mL) | 19 µM | 45 | –
43 | CCc1nc2ccccc2n1CCCCOc1ccc(C)c(C)c1 | 0.3 µM (≈ 0.0967 µg/mL) | 14 µM | 53 | –
44 | CC(=O)Nc1nc2ccc(C)cc2n1CCCCOc1ccc(C)c(Cl)c1 | 11 µM (≈ 4.24 µg/mL) | 8.3 µM | 0.8 | –

Row | Structure (SMILES) | MIC [1] | CC50 at 48 h [2] | Ratio [3] | Activity [4]
45 | CCc1nc2ccc(C)cc2n1CCCCNc1ccccc1 | 0.32 µM (≈ 0.0984 µg/mL) | 21 µM | 66 | –
46 | c1ccc(OCCCCn2cnc3ccccc32)cc1 | > 20 µM | – | – | –
47 | Nc1nc2ccccc2n1CCCCOc1ccccc1 | > 20 µM | – | – | –
48 | c1ccc(OCCCCn2c(-c3ccccc3)nc3ccccc32)cc1 | 16 µM (≈ 5.48 µg/mL) | 19 µM | 1.2 | –
49 | CCc1nc2cc(Cl)cnc2n1CCCCOc1ccccc1 | 6.1 µM (≈ 2.01 µg/mL) | 38 µM | 6.2 | –
50 | CCc1nc2ccc(C)cc2n1CCCOc1ccc(C)c(Cl)c1 | 0.22 µM (≈ 0.0754 µg/mL) | 17 µM | 77 | inactive
51 | CCc1nc2ccc(C)cc2n1CCCNc1ccc(Br)c(C)c1 | 0.052 µM (≈ 0.0201 µg/mL) | 27 µM | 523 | inactive
52 | CN1CCN(c2nc3ccccc3n2CCCCOc2ccccc2)CC1 | > 20 µM | – | – | –
53 | CCc1nc2ccccc2n1CCCCOc1c(Cl)cccc1Cl | 20 µM (≈ 7.27 µg/mL) | 13 µM | 1.5 | –
54 | CCc1nc2ccccc2n1CCOc1ccccc1 | > 20 µM | – | – | –
55 | CCc1nc2ccccc2n1CCCCOc1ccc2sc(C)nc2c1 | 1.5 µM (≈ 0.548 µg/mL) | 21 µM | 14 | –
56 | CCc1nc2ccccc2n1CCCCOC | > 20 µM | > 50 µM | – | –
57 | CCc1nc2cnc(C)cc2n1CCCCOc1ccccc1 | 1.5 µM (≈ 0.464 µg/mL) | 71 µM | 47 | –
58 | CCc1nc2ccccc2n1CCCCOc1ccc(C)c(Cl)c1 | 0.23 µM (≈ 0.0789 µg/mL) | 14 µM | 61 | –
59 | CCc1cc2ccccc2n1CCCCSc1nnc(-c2ccc(Cl)cc2)o1 | > 20 µM | > 50 µM | – | –
60 | Cc1nc2ccccc2n1CCOc1ccc(Cl)cc1 | > 20 µM | – | – | –
61 | CCc1nc2ccc(C)cc2n1CCCCNc1ccc(C)cc1C | 0.31 µM (≈ 0.104 µg/mL) | 20 µM | 65 | –
62 | Cc1nc2ccccc2n1CCOc1ccccc1 | > 20 µM | – | – | –
63 | CCc1nc2cnccc2n1CCCCOc1ccccc1 | > 20 µM | – | – | –
64 | CCc1nc2ccncc2n1CCCCOc1ccccc1 | > 20 µM | – | – | –
